Reference: publication PMC6272674, “Selected Compounds Structurally Related to Acyclic Sesquiterpenoids and Their Antibacterial and Cytotoxic Activity” (Molecules, 2015)
pIC50: −log10 of the molar value. Converted amounts (≈) assume the structure as drawn.

Tested on: Staphylococcus aureus ATCC 43300
Assay: Micro-dilution broth MIC, Staphylococcus aureus
Type: cell-based
Settings: ATCC43300, 24 h, 37 °C, read-out: Minimum Inhibitory Concentrations MIC
Experimental: (§1) The standard strains, Gram-positive: Staphylococcus aureus ATCC […], Enterococcus faecalis Van B ATCC 51299 and Enterococcus faecium VA sensitive ATCC 35667, and Gram-negative: Escherichia coli ATCC 25922, Klebsiella pneumoniae ATCC 700603 and Acinetobacter baumannii ATCC 19606, came from a collection of the Environmental Biology Department, Medical University of Łódź. The standard strains were cultivated in Columbia Agar Medium and incubated at 37 °C for 24 h in aerobic conditions.
(§2) The antibacterial activity of the racemates and E/Z-mixtures was investigated using the micro‑dilution broth method. The compounds were diluted in ethanol. This stock solution was mixed with 100 µL of Mueller-Hinton broth to obtain concentrations from 10 µg/mL to 80 µg/mL. The mixtures were then transferred to 96-well microtiter plates. The microbial suspension was standardised to a cell density of 1.5 × 10^8 CFU, which was equal to an optical density of 0.5 on the Mc Farland scale by a bio-Merieux densitometer; one well was filled with broth only to act as a control for strain growth.

MIC [µg/mL]	SMILES
26 (≈ 124 µM)	CC(C)=CCCC(C)CCC(C)=CCO (stereo not drawn) [Compound 28, 3,6,10-Trimethylundeca-2,9-dien-1-ol]
28 (≈ 125 µM)	CC(C)=CCCC(C)CC(C)C(C)=CCO (stereo not drawn) [Compound 29, 3,4,6,10-Tetramethylundeca-2,9-dien-1-ol]
28	CC(=O)OCC=C(C)CCC=C(C)C(C)CCCC(C)C (stereo not drawn) [Compound 32, 3,7,8,12-Tetramethyltrideca-2,6-dien-1-yl acetate]
24 (≈ 109 µM)	CC(C)=CCCC(C)=CCCC(C)=CC=O [Farnesal (3), farnesal, reference compound]

Tested on: Enterococcus faecalis ATCC 51299
Assay: Micro-dilution broth MIC, Enterococcus faecalis
Type: cell-based
Settings: ATCC51299, 24 h, 37 °C, read-out: Minimum Inhibitory Concentrations MIC
Experimental: as §1, §2

MIC [µg/mL]	SMILES
18 (≈ 85.6 µM)	CC(C)=CCCC(C)CCC(C)=CCO (stereo not drawn) [Compound 28, 3,6,10-Trimethylundeca-2,9-dien-1-ol]
22 (≈ 98 µM)	CC(C)=CCCC(C)CC(C)C(C)=CCO (stereo not drawn) [Compound 29, 3,4,6,10-Tetramethylundeca-2,9-dien-1-ol]
22	CC(=O)OCC=C(C)CCC=C(C)C(C)CCCC(C)C (stereo not drawn) [Compound 32, 3,7,8,12-Tetramethyltrideca-2,6-dien-1-yl acetate]
22 (≈ 99.8 µM)	CC(C)=CCCC(C)=CCCC(C)=CC=O [Farnesal (3), farnesal, reference compound]

Tested on: Enterococcus faecium ATCC 35667
Assay: Micro-dilution broth MIC, Enterococcus faecium
Type: cell-based
Settings: ATCC35667, 24 h, 37 °C, read-out: Minimum Inhibitory Concentrations MIC
Experimental: as §1, §2

MIC [µg/mL]	SMILES
16 (≈ 76.1 µM)	CC(C)=CCCC(C)CCC(C)=CCO (stereo not drawn) [Compound 28, 3,6,10-Trimethylundeca-2,9-dien-1-ol]
18 (≈ 80.2 µM)	CC(C)=CCCC(C)CC(C)C(C)=CCO (stereo not drawn) [Compound 29, 3,4,6,10-Tetramethylundeca-2,9-dien-1-ol]
20	CC(=O)OCC=C(C)CCC=C(C)C(C)CCCC(C)C (stereo not drawn) [Compound 32, 3,7,8,12-Tetramethyltrideca-2,6-dien-1-yl acetate]
36 (≈ 163 µM)	CC(C)=CCCC(C)=CCCC(C)=CC=O [Farnesal (3), farnesal, reference compound]

Tested on: Escherichia coli ATCC 25922
Assay: Micro-dilution broth MIC, Escherichia coli
Type: cell-based
Settings: ATCC25922, 24 h, 37 °C, read-out: Minimum Inhibitory Concentrations MIC
Experimental: as §1, §2

MIC [µg/mL]	SMILES
28 (≈ 133 µM)	CC(C)=CCCC(C)CCC(C)=CCO (stereo not drawn) [Compound 28, 3,6,10-Trimethylundeca-2,9-dien-1-ol]
38 (≈ 169 µM)	CC(C)=CCCC(C)CC(C)C(C)=CCO (stereo not drawn) [Compound 29, 3,4,6,10-Tetramethylundeca-2,9-dien-1-ol]
28	CC(=O)OCC=C(C)CCC=C(C)C(C)CCCC(C)C (stereo not drawn) [Compound 32, 3,7,8,12-Tetramethyltrideca-2,6-dien-1-yl acetate]
46 (≈ 209 µM)	CC(C)=CCCC(C)=CCCC(C)=CC=O [Farnesal (3), farnesal, reference compound]

Tested on: Klebsiella pneumoniae ATCC 700603
Assay: Micro-dilution broth MIC, Klebsiella pneumoniae
Type: cell-based
Settings: ATCC700603, 24 h, 37 °C, read-out: Minimum Inhibitory Concentrations MIC
Experimental: as §1, §2

MIC [µg/mL]	SMILES
16 (≈ 76.1 µM)	CC(C)=CCCC(C)CCC(C)=CCO (stereo not drawn) [Compound 28, 3,6,10-Trimethylundeca-2,9-dien-1-ol]
36 (≈ 160 µM)	CC(C)=CCCC(C)CC(C)C(C)=CCO (stereo not drawn) [Compound 29, 3,4,6,10-Tetramethylundeca-2,9-dien-1-ol]
18	CC(=O)OCC=C(C)CCC=C(C)C(C)CCCC(C)C (stereo not drawn) [Compound 32, 3,7,8,12-Tetramethyltrideca-2,6-dien-1-yl acetate]
44 (≈ 200 µM)	CC(C)=CCCC(C)=CCCC(C)=CC=O [Farnesal (3), farnesal, reference compound]

Tested on: Acinetobacter baumannii ATCC 19606
Assay: Micro-dilution broth MIC, Acinetobacter baumannii
Type: cell-based
Settings: ATCC19606, 24 h, 37 °C, read-out: Minimum Inhibitory Concentrations MIC
Experimental: as §1, §2

MIC [µg/mL]	SMILES
18 (≈ 85.6 µM)	CC(C)=CCCC(C)CCC(C)=CCO (stereo not drawn) [Compound 28, 3,6,10-Trimethylundeca-2,9-dien-1-ol]
32 (≈ 143 µM)	CC(C)=CCCC(C)CC(C)C(C)=CCO (stereo not drawn) [Compound 29, 3,4,6,10-Tetramethylundeca-2,9-dien-1-ol]
22	CC(=O)OCC=C(C)CCC=C(C)C(C)CCCC(C)C (stereo not drawn) [Compound 32, 3,7,8,12-Tetramethyltrideca-2,6-dien-1-yl acetate]
36 (≈ 163 µM)	CC(C)=CCCC(C)=CCCC(C)=CC=O [Farnesal (3), farnesal, reference compound]

Tested on: Malignant Melanoma MEWO
Assay: MTT viability, MEWO
Type: cell-based, human
Settings: Homo sapiens, 24 h, range 10–1000 µM, read-out: half maximal inhibitory concentration (IC50), interpolated
Experimental: (§3) Cell lines and in vitro culture conditions: The human promyelocytic leukaemia cell line HL-60 was obtained from the Centre of Molecular and Macromolecular Biology in Łódź, Poland and was cultured in RPMI 1640 medium with 20% heat-inactivated fetal bovine serum (FBS). To reduce spontaneous differentiation, the cells were never allowed to exceed a concentration of 1.0 × 10^6 cells/mL. The human keratinocyte cell line HaCaT was obtained from Cell Lines Service, Germany (CLS) and cultured in DMEM medium with 10% FBS. Human colorectal adenocarcinoma HT29 and normal epithelial IEC-6 cell lines (from ATCC) were cultured in DMEM medium with 10% FBS. The human skin melanoma cell line MEWO (from CLS) was cultured in DMEM:F12 supplemented with 2 mM L-glutamine and 10% FBS. Human fibroblasts from gingiva isolated from original tissue, HFIB-G, (from Provitro) were cultured in Quantum 333 (from Immunique). The media were supplemented with 100 U/mL penicillin and 100 µg/mL streptomycin; all media components were obtained from Life Technologies. The adherent cell lines used in the studies were seeded on microplates before they exceeded 80% of confluence. Cells were cultured at 37 °C in 5% CO2 air atmosphere/95% air atmosphere.
(§4) Cytotoxic activity: The cells (the density for HL-60 was 0.5 × 10^4 cells/100 µL, otherwise it was 1 × 10^4 cells/100 µL) were plated into each well of 96-well microtiter plates and, after their attachment to the plate surface, treated with 10 µL of the indicated concentrations of compounds for 24 h. Viability was determined by MTT assay following the treatment. MTT (3-[4.5-dimethylthiazol-2-yl]-2.5-diphenyltetrazolium bromide; Sigma, St. Louis, MO, USA) solution was added to each well and incubated for another 4 h. The resulting MTT-formazan product was dissolved by the addition of lysis buffer (20% SDS and 50% DMF). The amount of formazan was determined by measuring absorbance at 570 nm with a Synergy 2 microplate reader (BioTek, Winooski, VT, USA) operated by the Gen5 program. The experiments were conducted three times with five replications. The results are expressed as an optical density ratio of the treatment to control. All data are presented as means ± SD.

pIC50	SMILES
3.29	CC(C)=CCCC(C)CCC(C)=CCO (stereo not drawn) [Compound 28, 3,6,10-Trimethylundeca-2,9-dien-1-ol]
3.23	CC(C)=CCCC(C)CC(C)C(C)=CCO (stereo not drawn) [Compound 29, 3,4,6,10-Tetramethylundeca-2,9-dien-1-ol]
3.10	CC(=O)OCC=C(C)CCC=C(C)C(C)CCCC(C)C (stereo not drawn) [Compound 32, 3,7,8,12-Tetramethyltrideca-2,6-dien-1-yl acetate]
3.33	CC(C)=CCCC(C)=CCCC(C)=CC=O [Farnesal (3), farnesal, reference compound]

Tested on: not listed separately
Assay: MTT viability, HT29
Type: cell-based, human
Settings: human, HT29 colorectal adenocarcinoma cells, 1000 µM (IC50 exceeded 1000 µM), read-out: viability ± standard deviation at 1000 µM
Experimental: as §3, §4

SMILES	viability at 24 h, 1000 µM [%]
CC(C)=CCCC(C)CCC(C)=CCO (stereo not drawn) [Compound 28, 3,6,10-Trimethylundeca-2,9-dien-1-ol]	93
CC(C)=CCCC(C)CC(C)C(C)=CCO (stereo not drawn) [Compound 29, 3,4,6,10-Tetramethylundeca-2,9-dien-1-ol]	82
CC(=O)OCC=C(C)CCC=C(C)C(C)CCCC(C)C (stereo not drawn) [Compound 32, 3,7,8,12-Tetramethyltrideca-2,6-dien-1-yl acetate]	103
CC(C)=CCCC(C)=CCCC(C)=CC=O [Farnesal (3), farnesal, reference compound]	110

Tested on: Promyelocytic Leukaemia HL-60
Assay: MTT viability, HL-60
Type: cell-based, human
Settings: Homo sapiens, HL-60, 24 h, HL-60, MTT, range 10–1000 µM, read-out: half maximal inhibitory concentration (IC50), interpolated
Experimental: as §3, §4

pIC50	SMILES
3.70	CC(C)=CCCC(C)CCC(C)=CCO (stereo not drawn) [Compound 28, 3,6,10-Trimethylundeca-2,9-dien-1-ol]
3.60	CC(C)=CCCC(C)CC(C)C(C)=CCO (stereo not drawn) [Compound 29, 3,4,6,10-Tetramethylundeca-2,9-dien-1-ol]
3.56	CC(=O)OCC=C(C)CCC=C(C)C(C)CCCC(C)C (stereo not drawn) [Compound 32, 3,7,8,12-Tetramethyltrideca-2,6-dien-1-yl acetate]
3.44	CC(C)=CCCC(C)=CCCC(C)=CC=O [Farnesal (3), farnesal, reference compound]

Tested on: Fibroblasts HFIG
Assay: MTT viability, HFIG
Type: cell-based, human
Settings: Homo sapiens, Fibroblast, 24 h, range 10–1000 µM, read-out: half maximal inhibitory concentration (IC50), interpolated
Experimental: as §3, §4

SMILES	pIC50
CC(C)=CCCC(C)CCC(C)=CCO (stereo not drawn) [Compound 28, 3,6,10-Trimethylundeca-2,9-dien-1-ol]	3.16
CC(C)=CCCC(C)CC(C)C(C)=CCO (stereo not drawn) [Compound 29, 3,4,6,10-Tetramethylundeca-2,9-dien-1-ol]	3.12
CC(=O)OCC=C(C)CCC=C(C)C(C)CCCC(C)C (stereo not drawn) [Compound 32, 3,7,8,12-Tetramethyltrideca-2,6-dien-1-yl acetate]	3.01
CC(C)=CCCC(C)=CCCC(C)=CC=O [Farnesal (3), farnesal, reference compound]	3.19

Tested on: Keratinocytes HaCaT
Assay: MTT viability, HaCaT
Type: cell-based, human
Settings: Homo sapiens, 24 h, range 10–1000 µM, read-out: half maximal inhibitory concentration (IC50), interpolated
Experimental: as §3, §4

SMILES	pIC50
CC(C)=CCCC(C)CCC(C)=CCO (stereo not drawn) [Compound 28, 3,6,10-Trimethylundeca-2,9-dien-1-ol]	3.16
CC(C)=CCCC(C)CC(C)C(C)=CCO (stereo not drawn) [Compound 29, 3,4,6,10-Tetramethylundeca-2,9-dien-1-ol]	3.02
CC(=O)OCC=C(C)CCC=C(C)C(C)CCCC(C)C (stereo not drawn) [Compound 32, 3,7,8,12-Tetramethyltrideca-2,6-dien-1-yl acetate]	3.02
CC(C)=CCCC(C)=CCCC(C)=CC=O [Farnesal (3), farnesal, reference compound]	3.15

Tested on: not listed separately
Assay: MTT viability, IEC6
Type: cell-based
Settings: rat, IEC-6 small intestine epithelial cells, 1000 µM (IC50 exceeded 1000 µM), read-out: viability ± standard deviation at 1000 µM
Experimental: as §3, §4

SMILES	viability at 24 h, 1000 µM [%]
CC(C)=CCCC(C)CCC(C)=CCO (stereo not drawn) [Compound 28, 3,6,10-Trimethylundeca-2,9-dien-1-ol]	101
CC(C)=CCCC(C)CC(C)C(C)=CCO (stereo not drawn) [Compound 29, 3,4,6,10-Tetramethylundeca-2,9-dien-1-ol]	103
CC(=O)OCC=C(C)CCC=C(C)C(C)CCCC(C)C (stereo not drawn) [Compound 32, 3,7,8,12-Tetramethyltrideca-2,6-dien-1-yl acetate]	92
CC(C)=CCCC(C)=CCCC(C)=CC=O [Farnesal (3), farnesal, reference compound]	85
